Read-outs that look alike come from different tables or passages of the source.
Assays:
[1] = Effect on weight gain in male DIO rats; format: in vivo, rat
Description: Male DIO rats, weighing approximately 200 g each were housed singly in plastic cages with wood litter and free access to food and water in a vivarium maintained under a 12 hour light/dark cycle at 21±3°. After an acclimatization period of 1 week, the studies were initiated. During the study period, access to food and water was restricted for 3 hours per day (1000 to 1300 hrs). On day 0, the amount of food and water consumed was measured in all rats in the absence of any treatment. […] A cannabinoid receptor blocker, termed AM251, and an enantiomer of fenfluramine, termed d-FEN1, both of which are known to regulate the melanocortin pathways in animals, were also administered for comparison purposes. Test compounds or vehicle were then orally administered in a volume of 5 mL/kg 60 minutes before access to food and water (0900 hrs). Body weight was measured prior to and 18 hours after administration of the various compounds.

[2] = Toxicokinetic evaluation in rats; settings: rat, in vivo
Description: For toxicokinetic evaluation, all animals were observed twice daily for mortality and moribundity. Blood samples were collected from three animals/sex/group at 0 (pre-dose), 1, 2, 4, 8 and 24 hours after dose administration on study days 0 and 87. All toxicokinetic animals were euthanized and discarded following the final blood collection (study day 88).

in vivo = format: in vivo; settings: both sexes, beagle, dog, in vivo, po
Description: Eighteen male and eighteen female beagle dogs were received from Ridglan Farms, Mt. Horeb, Wis. […] Each group consisted of four males and four females. All animals/sex/group were scheduled for the primary necropsy at the end of the 13-week treatment period.
The animals were observed twice daily for mortality and moribundity. Clinical examinations were performed daily at the time of dosing and approximately 1-2 and approximately 3 hours following dose administration. Detailed physical examinations were performed weekly. Clinical pathology evaluations (hematology, serum chemistry and urinalysis) were performed prior to the initiation of dose administration (study week-1) and prior to the scheduled necropsy (study week 13). Individual body weights were recorded weekly, beginning approximately two weeks prior to test article administration (study week-2). Mean body weights and mean body weight changes were calculated for each corresponding interval. Final body weights (fasted) were recorded prior to the scheduled necropsy. […] Gross lesions were also examined from the 2.0 and 6.0 mg/kg/day groups.

[3] = female, Crl:CD(SD)IGS BR (Sprague-Dawley), po, 60 mg/kg/day
[4] = female, Crl:CD(SD)IGS BR, po, 10 mg/kg/day
[5] = female, Crl:CD(SD)IGS BR, po, 25 mg/kg/day
[6] = male, Crl:CD(SD)IGS BR, po, 10 mg/kg/day
[7] = male, Crl:CD(SD)IGS BR, po, 25 mg/kg/day
[8] = male, Crl:CD(SD)IGS BR, po, 60 mg/kg/day

For `Clc1ccc([C@]23CNCC2C3)cc1Cl` (single isomer, unassigned; (+)) [(+)-1-(3,4-dichlorophenyl)-3-azabicyclo[3.1.0]hexane], the “body weight gain compared to vehicle” value ([1]; oral 2, 4, 6, 20 and 40 mg/kg, 18 hours after administration) was “dose-dependently suppressed this body weight gain”, the “effect on body weight compared with AM251 or d-FEN1” value ([1]; oral doses of 20 and 40 mg/kg, 18 hours) was “significantly more effective than either AM251 or d-FEN1” and the AUC(0-t) ([2]; Crl:CD(SD)IGS BR (Sprague-Dawley), male rats, 10 mg/kg/day oral, Day 87, read-out: AUC0-24 h) was 8130 ng·h/mL. It also gave an AUC(0-t) ([2]; Crl:CD(SD)IGS BR, female rats, 10 mg/kg/day oral, Day 87, read-out: AUC0-24 h) of 14400 ng·h/mL, an AUC0-24 h [2, 3] of 88137 ng·h/mL and an AUC(0-t) ([2]; female, Crl:CD(SD)IGS BR (Sprague-Dawley), po, 60 mg/kg/day, AUC0-24 h) of 54400 ng·h/mL. The Cmax [2, 3] was 6600 ng/mL, the Tmax [2, 3] was 2 h and the AUC(0-t) ([2]; female, Crl:CD(SD)IGS BR, po, 10 mg/kg/day, AUC0-24 h) was 10900 ng·h/mL. It also gave a Cmax [2, 4] of 1390 ng/mL, a Tmax [2, 4] of 1 h and an AUC0-24 h [2, 5] of 30205 ng·h/mL. The AUC(0-t) ([2]; female, Crl:CD(SD)IGS BR, po, 25 mg/kg/day, AUC0-24 h) was 31000 ng·h/mL, the Cmax [2, 5] was 2810 ng/mL and the Tmax [2, 5] was 2 h. The AUC(0-t) ([2]; male, Crl:CD(SD)IGS BR (Sprague-Dawley), po, 10 mg/kg/day, AUC0-24 h) was 5940 ng·h/mL, the Cmax [2, 6] was 863 ng/mL and the Tmax [2, 6] was 2 h. For the same molecule, the AUC0-24 h [2, 7] was 21975 ng·h/mL, the AUC(0-t) ([2]; male, Crl:CD(SD)IGS BR, po, 25 mg/kg/day, AUC0-24 h) was 17400 ng·h/mL and the Cmax [2, 7] was 2360 ng/mL. The Tmax [2, 7] was 2 h, the AUC0-24 h [2, 8] was 60093 ng·h/mL and the AUC(0-t) ([2]; male, Crl:CD(SD)IGS BR, po, 60 mg/kg/day, AUC0-24 h) was 36300 ng·h/mL. It also gave a Cmax [2, 8] of 3680 ng/mL, a Tmax [2, 8] of 1 h and an NOAEL at 13 weeks (in vivo) of 6 mg/kg/day.

Reference: patent US20070225351A1, “Methods and compositions for controlling body weight and appetite” (priority 2002, published 2007)
